“And” between values parts separate entries of the source, which are not always exact repeats. Identical values can stand only once. Inconclusive results and toxic doses are left out. Non-standard residues stand in square brackets, D forms with d. Residues, ends and D or L forms follow the SMILES beside them. ξ: configuration not given here. *: point of attachment. Cbz = O=C(OCc1ccccc1)*; ξV = CC(C)C(N)C(=O)O
Test system: CD2F1 mice, L1210 leukemia ip, survival T/C
Experiment: NCI In Vivo Anticancer Drug Screen. Data for tumor model L1210 Leukemia (intraperitoneal) in CD2F1 (CDF1) mice
Settings: higher = longer survival
Experimental: The antitumor activity of compounds was measured in mice bearing transplantable tumors. Survival or tumor size were measured and the results are expressed as the measurement made in the treated group (T) divided by the measurement made in the vehicle treated control group (C). The tumor model used in this assay is L1210 Leukemia (intraperitoneal) in CD2F1 (CDF1) mice

[1] = endpoint: mean survival time, dose: 100.0 mg/kg/injection, schedule: Q01DX009 (ip), vehicle: saline with Tween-80
[2] = endpoint: mean survival time, dose: 100.0 mg/kg/injection, schedule: Q04DX003 (ip), vehicle: saline with Tween-80
[3] = endpoint: mean survival time, dose: 200.0 mg/kg/injection, schedule: Q01DX009 (ip), vehicle: saline with Tween-80
[4] = endpoint: mean survival time, dose: 200.0 mg/kg/injection, schedule: Q04DX003 (ip), vehicle: saline with Tween-80
[5] = endpoint: mean survival time, dose: 400.0 mg/kg/injection, schedule: Q01DX009 (ip), vehicle: saline with Tween-80
[6] = endpoint: mean survival time, dose: 400.0 mg/kg/injection, schedule: Q04DX003 (ip), vehicle: saline with Tween-80
[7] = endpoint: mean survival time, dose: 50.0 mg/kg/injection, schedule: Q04DX002 (ip), vehicle: saline with Tween-80
[8] = endpoint: mean survival time, dose: 100.0 mg/kg/injection, schedule: Q01DX001 (ip), vehicle: saline with Tween-80
[9] = endpoint: mean survival time, dose: 100.0 mg/kg/injection, schedule: Q04DX002 (ip), vehicle: saline with Tween-80
[10] = endpoint: mean survival time, dose: 200.0 mg/kg/injection, schedule: Q01DX001 (ip), vehicle: saline with Tween-80
[11] = endpoint: mean survival time, dose: 400.0 mg/kg/injection, schedule: Q01DX001 (ip), vehicle: saline with Tween-80
[12] = endpoint: mean survival time, dose: 50.0 mg/kg/injection, schedule: Q01DX009 (ip), vehicle: saline
[13] = endpoint: mean survival time, dose: 100.0 mg/kg/injection, schedule: Q01DX009 (ip), vehicle: saline

O=P(OCCCl)(OCCCl)C(Cl)Cl
T/C (endpoint: mean survival time, dose: 100.0 mg/kg/injection, schedule: Q01DX001 (ip), vehicle: saline): 96 % of control
T/C (endpoint: mean survival time, dose: 200.0 mg/kg/injection, schedule: Q01DX001 (ip), vehicle: saline): 100 % of control
T/C (endpoint: mean survival time, dose: 400.0 mg/kg/injection, schedule: Q01DX001 (ip), vehicle: saline): 97 % of control

NS(=O)(=O)O
T/C (endpoint: mean survival time, dose: 12.5 mg/kg/injection, schedule: Q04DX003 (ip), vehicle: saline): 98 % of control
T/C (endpoint: mean survival time, dose: 25.0 mg/kg/injection, schedule: Q04DX003 (ip), vehicle: saline): 110 % of control
T/C (endpoint: mean survival time, dose: 50.0 mg/kg/injection, schedule: Q04DX003 (ip), vehicle: saline): 102 % of control

O=P1(OCCBr)NCCCO1 (stereo not given)
T/C (endpoint: mean survival time, dose: 62.5 mg/kg/injection, schedule: Q01DX001 (ip), vehicle: water): 95 % of control
T/C (endpoint: mean survival time, dose: 125.0 mg/kg/injection, schedule: Q01DX001 (ip), vehicle: water): 101 % of control
T/C (endpoint: mean survival time, dose: 250.0 mg/kg/injection, schedule: Q01DX001 (ip), vehicle: water): 104 % of control
T/C (endpoint: mean survival time, dose: 500.0 mg/kg/injection, schedule: Q01DX001 (ip), vehicle: water): 98 % of control
T/C (endpoint: mean survival time, dose: 750.0 mg/kg/injection, schedule: Q01DX001 (ip), vehicle: water): 101 % of control

OC(c1ccccc1)c1nc2ccccc2[nH]1 (stereo not given)
T/C [1]: 98 % of control
T/C [2]: 101 % of control
T/C [3]: 95 % of control
T/C [4]: 96 % of control
T/C [5]: 96 % of control
T/C [6]: 100 % of control

Cc1ccc(NCC2(/N=C/c3ccccc3)OC(CO)C(O)C2O)cc1 (stereo not given)
T/C (endpoint: mean survival time, dose: 100.0 mg/kg/injection, schedule: Q01DX009 (ip), vehicle: Klucel (hydroxypropylcellulose) (HPC)): 109 % of control
T/C (endpoint: mean survival time, dose: 177.0 mg/kg/injection, schedule: Q01DX009 (ip), vehicle: saline with Tween-80): 113 % of control
T/C (endpoint: mean survival time, dose: 200.0 mg/kg/injection, schedule: Q01DX009 (ip), vehicle: Klucel (hydroxypropylcellulose) (HPC)): 118 % of control
T/C (endpoint: mean survival time, dose: 266.0 mg/kg/injection, schedule: Q01DX009 (ip), vehicle: Klucel (hydroxypropylcellulose) (HPC)): 120 % of control

CC(C)C(NC(=O)c1cccnc1)C(=O)O (stereo not given)
T/C [7]: 100 % of control
T/C [8]: 108 % of control
T/C [9]: 100 % of control
T/C [10]: 108 % of control
T/C (endpoint: mean survival time, dose: 200.0 mg/kg/injection, schedule: Q04DX002 (ip), vehicle: saline with Tween-80): 104 % of control
T/C [11]: 97 % of control

O=[N+]([O-])c1cc(S(=O)(=O)O)cc([N+](=O)[O-])c1Cl
T/C (endpoint: mean survival time, dose: 25.0 mg/kg/injection, schedule: Q01DX009 (ip), vehicle: saline): 103 % of control
T/C [12]: 96 % of control
T/C [13]: 98 % of control and 103 % of control

Cc1cc2c(=O)[nH]cnc2[nH]1
T/C (endpoint: median survival time, dose: 12.5 mg/kg/injection, schedule: Q01DX005 (ip), vehicle: saline with Tween-80): 102 % of control
T/C (endpoint: median survival time, dose: 25.0 mg/kg/injection, schedule: Q01DX005 (ip), vehicle: saline with Tween-80): 100 % of control
T/C (endpoint: median survival time, dose: 50.0 mg/kg/injection, schedule: Q01DX005 (ip), vehicle: saline with Tween-80): 101 % of control
T/C (endpoint: median survival time, dose: 50.0 mg/kg/injection, schedule: Q01DX005 (ip), vehicle: saline): 102 % of control
T/C (endpoint: median survival time, dose: 100.0 mg/kg/injection, schedule: Q01DX005 (ip), vehicle: saline): 90 % of control

CN(C)C(=O)Nc1nc2ccccc2s1
T/C (endpoint: mean survival time, dose: 25.0 mg/kg/injection, schedule: Q04DX002 (ip), vehicle: saline with Tween-80): 103 % of control
T/C [7]: 95 % of control
T/C [9]: 115 % of control and 93 % of control
T/C (endpoint: mean survival time, dose: 400.0 mg/kg/injection, schedule: Q04DX002 (ip), vehicle: saline with Tween-80): 90 % of control

Cc1c2ccncc2c(C)c2c1[nH]c1ccc(O)cc12
T/C (endpoint: mean survival time, dose: 16.75 mg/kg/injection, schedule: Q04DX003 (ip), vehicle: water): 116 % of control
T/C (endpoint: mean survival time, dose: 50.0 mg/kg/injection, schedule: Q04DX003 (ip), vehicle: other): 166 % of control
T/C (endpoint: mean survival time, dose: 75.0 mg/kg/injection, schedule: Q04DX003 (ip), vehicle: water): 111 % of control
T/C (endpoint: mean survival time, dose: 100.0 mg/kg/injection, schedule: Q04DX003 (ip), vehicle: other): 102 % of control
T/C (endpoint: mean survival time, dose: 100.0 mg/kg/injection, schedule: Q04DX003 (ip), vehicle: water): 94 % of control

O=c1n[n+]([O-])ccn1C1OC(CO)C(O)C1O (stereo not given)
T/C [12]: 107 % of control
T/C [13]: 120 % of control and 121 % of control
T/C (endpoint: mean survival time, dose: 300.0 mg/kg/injection, schedule: Q01DX009 (ip), vehicle: saline): 157 % of control and 173 % of control
T/C (endpoint: mean survival time, dose: 400.0 mg/kg/injection, schedule: Q01DX009 (ip), vehicle: saline): 150 % of control
T/C (endpoint: mean survival time, dose: 600.0 mg/kg/injection, schedule: Q01DX009 (ip), vehicle: saline): 91 % of control
T/C (endpoint: median survival time, dose: 200.0 mg/kg/injection, schedule: Q01DX009 (ip), vehicle: saline): 150 % of control
T/C (endpoint: median survival time, dose: 288.0 mg/kg/injection, schedule: Q01DX009 (ip), vehicle: saline): 161 % of control
T/C (endpoint: median survival time, dose: 300.0 mg/kg/injection, schedule: Q01DX009 (ip), vehicle: saline): 174 % of control
T/C (endpoint: median survival time, dose: 480.0 mg/kg/injection, schedule: Q01DX009 (ip), vehicle: saline): 180 % of control

CN(C)c1nc(=[N+](C)C)ss1
T/C (endpoint: mean survival time, dose: 50.0 mg/kg/injection, schedule: Q01DX009 (ip), vehicle: saline with Tween-80): 104 % of control
T/C [1]: 101 % of control and 107 % of control
T/C [2]: 102 % of control
T/C [3]: 93 % of control and 107 % of control
T/C [4]: 98 % of control
T/C [5]: 93 % of control
T/C [6]: 90 % of control

O=C(NNC(=O)NC1OCC(O)C(O)C1O)Nc1ccccc1 (stereo not given)
T/C [2]: 101 % of control
T/C [4]: 98 % of control
T/C [6]: 98 % of control

CCCCCC/C=N\N=C(N)N
T/C (endpoint: mean survival time, dose: 75.0 mg/kg/injection, schedule: Q01DX001 (ip), vehicle: saline): 103 % of control

O=[N+]([O-])c1ccc(N2CCCCC2)c([N+](=O)[O-])c1
T/C [1]: 96 % of control
T/C [3]: 98 % of control
T/C [5]: 95 % of control

CC(C)/C(=N\Nc1ccc([N+](=O)[O-])cc1[N+](=O)[O-])c1ccccc1
T/C [1]: 97 % of control
T/C [3]: 101 % of control
T/C [5]: 103 % of control

O=[N+]([O-])c1cccc(Cc2nc3ccccc3nc2-c2ccccc2)c1
T/C [8]: 94 % of control
T/C [11]: 91 % of control

COC(=O)C(NC(=O)CNC(=O)OCc1ccccc1)C(C)C (stereo not drawn) (Cbz-Gly-[ξV]-OMe)
T/C [2]: 100 % of control
T/C [4]: 97 % of control
T/C [6]: 99 % of control

COc1ccc(Sc2cccc3c2C(=O)c2c(Sc4ccc(OC)cc4)cccc2C3=O)cc1
T/C [1]: 99 % of control
T/C [3]: 94 % of control
T/C [5]: 89 % of control

COc1cc([N+](=O)[O-])c(C=O)c(C(=O)O)c1OC
T/C [1]: 103 % of control
T/C [2]: 90 % of control
T/C [3]: 104 % of control
T/C [4]: 98 % of control
T/C [5]: 110 % of control
T/C [6]: 107 % of control

O=S(=O)(Nc1ccc(CCc2ccc(NS(=O)(=O)c3ccccc3)cc2)cc1)c1ccccc1
T/C [8]: 95 % of control
T/C [10]: 90 % of control
T/C [11]: 92 % of control

O=C(C=C(C(F)(F)Cl)C(F)(F)Cl)c1cccs1
T/C (endpoint: mean survival time, dose: 5.0 mg/kg/injection, schedule: Q04DX003 (ip), vehicle: saline): 98 % of control
T/C (endpoint: mean survival time, dose: 10.0 mg/kg/injection, schedule: Q04DX003 (ip), vehicle: saline): 104 % of control
T/C (endpoint: mean survival time, dose: 20.0 mg/kg/injection, schedule: Q04DX003 (ip), vehicle: saline): 103 % of control
